In the assay the target is T1, RORc (Homo sapiens, UniProt P51449).
T1 sequence (P51449 269-508 limits assumed): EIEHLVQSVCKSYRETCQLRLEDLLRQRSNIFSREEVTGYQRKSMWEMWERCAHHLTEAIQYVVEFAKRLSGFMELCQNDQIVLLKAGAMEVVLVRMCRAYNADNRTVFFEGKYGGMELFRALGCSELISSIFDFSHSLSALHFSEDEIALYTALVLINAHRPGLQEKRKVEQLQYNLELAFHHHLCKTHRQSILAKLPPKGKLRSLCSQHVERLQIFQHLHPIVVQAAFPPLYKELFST
The experiment in a line: In vitro RORc ligand binding assay (25-[3H]hydroxycholesterol displacement). As to conditions: IC50, IC50 values for RORc; unit inferred.

These results are taken from patent US10131644B2, “Aryl sultam derivatives as RORc modulators” (Genentech, Inc., priority 2014, dated 2018).

As a reminder, the IC50 is the concentration at which inhibition is half-maximal. A high value points to a need for much substance.

In turn, `C[C@H]1CC[C@H](c2ccccc2)S(=O)(=O)N1Cc1ccc(C2(CC#N)COC2)cc1F` [Compound 105, 2-[3-[3-fluoro-4-[[(3S,6R)-3-methyl-1,1-dioxo-6-phenyl-thiazinan-2-yl]methyl]phenyl]oxetan-3-yl]acetonitrile] returned an IC50 of 0.0749 µM.
Turning to `C[C@H]1CC[C@H](c2ccccc2)S(=O)(=O)N1Cc1ccc(C2(NCCO)CCOCC2)cc1F` [Compound 106, 2-[[4-[3-fluoro-4-[[(3S,6R)-3-methyl-1,1-dioxo-6-phenyl-thiazinan-2-yl]methyl]phenyl]tetrahydropyran-4-yl]amino]ethanol], the IC50 was 0.137 µM.
On to `C[C@H]1CC[C@H](c2ccccc2)S(=O)(=O)N1Cc1ccc(C2(NC[C@H](O)CO)CCOCC2)cc1F` [Compound 107, (2S)-3-[[4-[3-fluoro-4-[[(3S,6R)-3-methyl-1,1-dioxo-6-phenyl-thiazinan-2-yl]methyl]phenyl]tetrahydropyran-4-yl]amino]propane-1,2-diol], for which the IC50 is 0.0226 µM.
In the case of `C[C@H]1CC[C@H](c2ccccc2)S(=O)(=O)N1Cc1ccc(C2(NC[C@@H](O)CO)CCOCC2)cc1F` [Compound 108], the IC50 is 0.0504 µM.
Molecule `C[C@H]1CC[C@H](c2ccccc2)S(=O)(=O)N1Cc1ccc(C2(C#N)CC2)cc1F` [Compound 109, 1-[3-fluoro-4-[[(3S,6R)-3-methyl-1,1-dioxo-6-phenyl-thiazinan-2-yl]methyl]phenyl]cyclopropanecarbonitrile] showed an IC50 of 0.116 µM.
Molecule `C[C@H]1CC[C@H](c2ccccc2)S(=O)(=O)N1Cc1ccc(C2(OCC(=O)O)CCOCC2)cc1F` [Compound 110, 2-[4-[3-fluoro-4-[[(3S,6R)-3-methyl-1,1-dioxo-6-phenyl-thiazinan-2-yl]methyl]phenyl]tetrahydropyran-4-yl]oxyacetic acid] displayed an IC50 of 0.0629 µM.
The same measure for `C[C@H]1CC[C@H](c2ccccc2)S(=O)(=O)N1Cc1ccc(C2(NC(=O)C(O)CO)CCOCC2)cc1F` (stereo partly drawn) [Compound 111, N-[4-[3-fluoro-4-[[(3S,6R)-3-methyl-1,1-dioxo-6-phenyl-thiazinan-2-yl]methyl]phenyl]tetrahydropyran-4-yl]-2,3-dihydroxy-propanamide]: 0.138 µM; for `C[C@H]1CC[C@H](c2ccccc2)S(=O)(=O)N1Cc1ccc(C2(CO)CC2)cc1F` [Compound 112, [1-[3-fluoro-4-[[(3S,6R)-3-methyl-1,1-dioxo-6-phenyl-thiazinan-2-yl]methyl]phenyl]cyclopropyl]methanol]: 0.206 µM.
Molecule `C[C@H]1CC[C@H](c2ccccc2)S(=O)(=O)N1Cc1ccc(C2(OCC(N)=O)CCOCC2)cc1F` [Compound 113, 2-[4-[3-fluoro-4-[[(3S,6R)-3-methyl-1,1-dioxo-6-phenyl-thiazinan-2-yl]methyl]phenyl]tetrahydropyran-4-yl]oxyacetamide] returned an IC50 of 0.005 µM.
In turn, `CCOC(=O)/C=C/C1(c2ccc(CN3[C@@H](C)CC[C@H](c4ccccc4)S3(=O)=O)c(F)c2)CC1` [Compound 114, ethyl (E)-3-[1-[3-fluoro-4-[[(3S,6R)-3-methyl-1,1-dioxo-6-phenyl-thiazinan-2-yl]methyl]phenyl]cyclopropyl]prop-2-enoate] registered an IC50 of 0.0536 µM.
`CCOC(=O)C[C@H](O)C1(c2ccc(CN3[C@@H](C)CC[C@H](c4ccccc4)S3(=O)=O)c(F)c2)CCOCC1` [Compound 115, ethyl (3S)-3-[4-[3-fluoro-4-[[(3S,6R)-3-methyl-1,1-dioxo-6-phenyl-thiazinan-2-yl]methyl]phenyl]tetrahydropyran-4-yl]-3-hydroxy-propanoate] had an IC50 of 0.0395 µM.
`CCOC(=O)C[C@@H](O)C1(c2ccc(CN3[C@@H](C)CC[C@H](c4ccccc4)S3(=O)=O)c(F)c2)CCOCC1` [Compound 116, ethyl (3R)-3-[4-[3-fluoro-4-[[(3S,6R)-3-methyl-1,1-dioxo-6-phenyl-thiazinan-2-yl]methyl]phenyl]tetrahydropyran-4-yl]-3-hydroxy-propanoate] had an IC50 of 0.0122 µM.
As for `C[C@H]1CC[C@H](c2ccccc2)S(=O)(=O)N1Cc1ccc(C2([C@@H](O)CCO)CCOCC2)cc1F` [Compound 117, (1S)-1-[4-[3-fluoro-4-[[(3S,6R)-3-methyl-1,1-dioxo-6-phenyl-thiazinan-2-yl]methyl]phenyl]tetrahydropyran-4-yl]propane-1,3-diol], the IC50 stood at 0.0352 µM.
The same measure for `C[C@H]1CC[C@H](c2ccccc2)S(=O)(=O)N1Cc1ccc(C2([C@H](O)CCO)CCOCC2)cc1F` [Compound 118, (1R)-1-[4-[3-fluoro-4-[[(3S,6R)-3-methyl-1,1-dioxo-6-phenyl-thiazinan-2-yl]methyl]phenyl]tetrahydropyran-4-yl]propane-1,3-diol]: 0.0166 µM; for `C[C@H]1CC[C@H](c2ccccc2)S(=O)(=O)N1Cc1ccc(C2(OC[C@@H](O)CO)CCOCC2)cc1F` [Compound 119, (2S)-3-[4-[3-fluoro-4-[[(3S,6R)-3-methyl-1,1-dioxo-6-phenyl-thiazinan-2-yl]methyl]phenyl]tetrahydropyran-4-yl]oxypropane-1,2-diol]: 0.0274 µM; for `COC(=O)C1(c2cc(F)c(CN3[C@@H](C)CC[C@H](c4ccccc4)S3(=O)=O)cc2F)CCC(=O)CC1` [Compound 120, methyl 1-[2,5-difluoro-4-[[(3S,6R)-3-methyl-1,1-dioxo-6-phenyl-thiazinan-2-yl]methyl]phenyl]-4-oxo-cyclohexanecarboxylate]: 0.0061 µM.
Under `C[C@H]1CC[C@H](c2ccccc2)S(=O)(=O)N1Cc1ccc(C2(COCC(N)=O)CCOCC2)cc1F` [Compound 121] stands 0.016 µM; under `C[C@H]1CC[C@H](c2ccccc2)S(=O)(=O)N1Cc1cc(F)c(C2(C#N)CCOCC2)cc1F` [Compound 122, 4-[2,5-difluoro-4-[[(3S,6R)-3-methyl-1,1-dioxo-6-phenyl-thiazinan-2-yl]methyl]phenyl]tetrahydropyran-4-carbonitrile], 0.0268 µM.
`C[C@H]1CC[C@H](c2ccccc2)S(=O)(=O)N1Cc1cc(F)c(C2(C#N)CC2)cc1F` [Compound 123, 1-[2,5-difluoro-4-[[(3S,6R)-3-methyl-1,1-dioxo-6-phenyl-thiazinan-2-yl]methyl]phenyl]cyclopropanecarbonitrile]: the IC50 was 0.0227 µM.
Under `COC(=O)C1(c2ccc(CN3[C@@H](C)CC[C@H](c4ccccc4)S3(=O)=O)c(F)c2)CCN(C(C)=O)CC1` [Compound 124, methyl 1-acetyl-4-[3-fluoro-4-[[(3S,6R)-3-methyl-1,1-dioxo-6-phenyl-thiazinan-2-yl]methyl]phenyl]piperidine-4-carboxylate] stands 0.013 µM.
Under `C[C@H]1CC[C@H](c2ccccc2)S(=O)(=O)N1Cc1cc(F)c(C2(C(N)=O)CC2)cc1F` [Compound 125, 1-[2,5-difluoro-4-[[(3S,6R)-3-methyl-1,1-dioxo-6-phenyl-thiazinan-2-yl]methyl]phenyl]cyclopropane-carboxamide] stands 0.346 µM; under `C[C@H]1CC[C@H](c2ccccc2)S(=O)(=O)N1Cc1cc(F)c(C2(CO)CC2)cc1F` [Compound 126, [1-[2,5-difluoro-4-[[(3S,6R)-3-methyl-1,1-dioxo-6-phenyl-thiazinan-2-yl]methyl]phenyl]cyclopropyl]methanol], 0.0499 µM; under `C[C@H]1CC[C@H](c2ccccc2)S(=O)(=O)N1Cc1cc(F)c(C2(COCC(N)=O)CC2)cc1F` [Compound 127, 2-[[1-[2,5-difluoro-4-[[(3S,6R)-3-methyl-1,1-dioxo-6-phenyl-thiazinan-2-yl]methyl]phenyl]cyclopropyl]methoxy]acetamide], 0.02 µM.
The molecule `C[C@H]1CC[C@H](c2ccccc2)S(=O)(=O)N1Cc1cc(F)c(C2(C(=O)NCC#N)CC2)cc1F` [Compound 128, N-(cyanomethyl)-1-[2,5-difluoro-4-[[(3S,6R)-3-methyl-1,1-dioxo-6-phenyl-thiazinan-2-yl]methyl]phenyl]cyclopropane-carboxamide] showed an IC50 of 0.39 µM.
The same measure for `C[C@H]1CC[C@H](c2ccccc2)S(=O)(=O)N1Cc1cc(F)c(C2(CO)CCC(O)CC2)cc1F` (stereo partly drawn) [Compound 129, 4-[2,5-difluoro-4-[[(3S,6R)-3-methyl-1,1-dioxo-6-phenyl-thiazinan-2-yl]methyl]phenyl]-4-(hydroxymethyl)cyclohexanol]: 0.0081 µM; for `C[C@H]1CC[C@H](c2ccccc2)S(=O)(=O)N1Cc1cc(F)c(C2(CO)CCC(O)CC2)cc1F` (stereo partly drawn) [Compound 130, 4-[2,5-difluoro-4-[[(3S,6R)-3-methyl-1,1-dioxo-6-phenyl-thiazinan-2-yl]methyl]phenyl]-4-(hydroxymethyl)cyclohexanol]: 0.0347 µM.
With `C[C@H]1CC[C@@H](c2ccccc2)S(=O)(=O)N1Cc1cc(F)c(C2(CO)CCC(O)CC2)cc1F` (stereo partly drawn) [Compound 131], the IC50 came to 0.0728 µM.
Turning to `C[C@H]1CC[C@@H](c2ccccc2)S(=O)(=O)N1Cc1cc(F)c(C2(CO)CCC(O)CC2)cc1F` (stereo partly drawn) [Compound 132], the IC50 is 0.24 µM.
The same measure for `C[C@H]1CC[C@H](c2ccccc2)S(=O)(=O)N1Cc1cc(F)c(C2(CO)CCC(n3cnnc3)CC2)cc1F` (stereo partly drawn) [Compound 133, [1-[2,5-difluoro-4-[[(3S,6R)-3-methyl-1,1-dioxo-6-phenyl-thiazinan-2-yl]methyl]phenyl]-4-(1,2,4-triazol-4-yl)cyclohexyl]methanol]: 0.0052 µM.
`C[C@H]1CC[C@H](c2ccccc2)S(=O)(=O)N1Cc1cc(F)c(C2(CO)CCC(n3cnnc3)CC2)cc1F` (stereo partly drawn) [Compound 134, [1-[2,5-difluoro-4-[[(3S,6R)-3-methyl-1,1-dioxo-6-phenyl-thiazinan-2-yl]methyl]phenyl]-4-(1,2,4-triazol-4-yl)cyclohexyl]methanol] came in with an IC50 of 0.0879 µM.
